Assay results as given in PMC9207808 (ACS Chemical Biology, 2022).
Residues, ends and D or L forms follow the SMILES beside them.

Columns and labels:
DocSTm [1] = test: Differential scanning fluorimetry (thermal stabilisation of Doc); assay type: binding, S. Typhimurium; conditions: for melting temperature shift ΔTm: DSF, DocSTm 5 μM, analyte 50 μM, Tm with analyte minus Tm of free DocSTm (42.9 ± 0.9 °C), SYPRO Orange, 20 mM K2HPO4, 50 mM (NH4)2SO4, pH 8.0, triplicate; for Average Tm / Tm: DocSTm 5 µM + 50 µM binder; for Average Tm: average of 3 replicates
Method: Experiments were performed in a Mx3005P qPCR System (Agilent) collecting fluorescence data with a temperature ramp of 25 to 95 °C. Samples were prepared in a buffer containing 20 mM K2HPO4 and 50 mM (NH4)2SO4 at pH 8.0. The SYPRO Orange dye (Sigma-Aldrich, 5000× stock in DMSO) was used to monitor protein denaturation and was diluted to a final concentration of 3×. For binding experiments, the final concentration of Doc was 5 μM. Each condition was performed in triplicate (ESI section 4) and the melting curves were plotted using GraphPad Prism 5 (GraphPad Software, U.S.A.). The melting temperatures were obtained by fitting the sigmoidal section of the curves to a Boltzmann sigmoid function.

DocSTm [2] = test: Surface plasmon resonance binding to immobilised Doc; design: species or system S. Typhimurium; conditions: for koff × 10^-6 / kon × 10^6: 1:1 kinetic fit, mean ± SD of at least 3 replicates; for kon × 10^6: single-cycle kinetics (multicycle for PhdSTm1-73); for Half-life of the complex: t1/2 = ln2 / koff
Method: Experiments were performed in a Biacore S200 (Cytiva) with a Series S sensor chip NTA (Cytiva). The data was analyzed using the Biacore Evaluation Software (Cytiva) and curves were plotted using GraphPad Prism 5 (GraphPad Software, U.S.A.). All experiments were performed at 22 °C with a running buffer containing 10 mM HEPES, 500 mM NaCl, 50 μM EDTA, and 0.005% (v/v) TWEEN 20 at pH 8.0. The surface was conditioned following the standard manufacturer’s guidelines and protein immobilization was performed with a 30–60 s pulse (flow rate of 5 μL/min) of Doc (150 nM) in running buffer. […] Surface regeneration was performed with a 1 min pulse of 0.5 M imidazole followed by a 1 min pulse of 0.35 M of EDTA at pH 8.0.
Binding to Doc was performed using a multicycle kinetics (MCK) setup for peptides 7, 10, and 14, while the remaining samples were tested using a single-cycle kinetics (SCK) setup. The surface was fully regenerated in between each analyte in both cases. In the MCK experiments, increasing concentrations of each analyte were injected with an 80 s pulse (30 μL/min) and dissociation times varied depending on the time required to fully dissociate the complex. The double-referenced sensorgrams (raw data subtracted from a blank injection and reference surface responses) were analyzed using a kinetic and/or a steady-state 1:1 binding model. In the SCK experiments, typically six concentrations of each analyte were sequentially injected with 80 s pulses (30 μL/min), and dissociation times varied depending on the time required to dissociate at least 5% of the complex. The double-referenced sensorgrams were fitted using a kinetic 1:1 binding model.
At least three independent replicates were measured for each analyte (ESI section 5). When a steady-state fit was applied, the reported Kd and its uncertainty correspond, respectively, to the average and standard deviations of the Kd obtained in each measurement. When a kinetic fit was applied, the reported rate constants (kon and koff) and their uncertainties correspond, respectively, to the average and standard deviations of the rate constants obtained in each measurement. In this case, reported Kd were calculated using the equation below, and the standard deviation of the rate constants was propagated. [drawing 1]

[3] = SPR, kinetic fit, KD calculated from mean koff and kon, SD propagated, 22 °C, pH 8.0

| Compound | melting temperature shift ΔTm (DocSTm [1]) [°C] | Average Tm (DocSTm [1]) [°C] | Tm (DocSTm [1]; replicate 1) [°C] | Tm (DocSTm [1]; replicate 2) [°C] | Tm (DocSTm [1]; replicate 3) [°C] | Kd (DocSTm [2]; SPR kinetic fit, replicate 1) [nM] | Kd (DocSTm [2]; SPR kinetic fit, replicate 2) [nM] | Kd (DocSTm [2]; SPR kinetic fit, replicate 3) [nM] | koff × 10^-6 (DocSTm [2]; SPR, 22 °C, pH 8.0) | kon × 10^6 (DocSTm [2]; SPR, 22 °C, pH 8.0) | Kd (DocSTm [2]; [3]) [nM] | Half-life of the complex (DocSTm [2]) [h] | Kd (DocSTm [2]; SPR kinetic fit, replicate 4) [nM] |
| --- | --- | --- | --- | --- | --- | --- | --- | --- | --- | --- | --- | --- | --- |
| CC[C@H](C)[C@H](NC(=O)[C@H](C)NC(=O)[C@H](C)NC(=O)[C@H](Cc1ccccc1)NC(=O)[C@H](CCC(=O)O)NC(=O)[C@H](CC(=O)O)NC(=O)[C@H](CC(=O)O)NC(=O)[C@H](C)NC(=O)[C@H](Cc1c[nH]c2ccccc12)NC(C)=O)C(=O)N[C@@H](CCSC)C(=O)N[C@@H](C)C(=O)N[C@H](C(=O)N[C@@H](Cc1c[nH]cn1)C(=O)NCC(=O)N[C@@H](CC(N)=O)C(=O)N[C@@H](CCC(=O)O)C(=O)N[C@@H](CC(C)C)C(=O)N[C@@H](CCCNC(=N)N)C(=O)N[C@@H](CCC(=O)O)C(=O)N[C@@H](CC(C)C)C(=O)N[C@@H](C)C(=O)N[C@@H](CC(=O)O)C(=O)N[C@@H](CCCCN)C(=O)O)C(C)C [peptide 2] (Ac-WADDEFAAIMAVHGNELRELADK-OH; C-terminus assumed) | 28.0 ± 1.0 | 70.9 ± 0.4 | 71.3 | 70.8 | 70.6 | 0.0523 | 0.0478 | 0.0551 | 59 ± 11 ×10^-6 s-1 | 1.136 ± 0.140 ×10^6 M-1 s-1 | 0.052 ± 0.012 | 3.3 ± 0.6 |  |
| CC[C@H](C)[C@H](NC(=O)[C@H](C)NC(=O)[C@H](C)NC(=O)[C@H](Cc1ccccc1)NC(=O)[C@H](C)NC(=O)[C@H](CC(=O)O)NC(=O)[C@H](CC(=O)O)NC(=O)[C@H](CCSC)NC(=O)[C@H](Cc1c[nH]c2ccccc12)NC(C)=O)C(=O)N[C@@H](CCSC)C(=O)N[C@@H](C)C(=O)N[C@H](C(=O)N[C@@H](Cc1c[nH]cn1)C(=O)NCC(=O)N[C@@H](CC(N)=O)C(=O)N[C@@H](CCC(=O)O)C(=O)N[C@@H](CC(C)C)C(=O)N[C@@H](CCCNC(=N)N)C(=O)N[C@@H](CCC(=O)O)C(=O)N[C@@H](CC(C)C)C(=O)N[C@@H](C)C(=O)N[C@@H](CC(=O)O)C(=O)N[C@@H](CCCCN)C(=O)O)C(C)C [peptide 5] (Ac-WMDDAFAAIMAVHGNELRELADK-OH; C-terminus assumed) | 23.4 ± 0.9 | 66.3 ± 0.1 | 66.3 | 66.3 | 66.2 | 0.0489 | 0.0513 | 0.0469 | 75 ± 5 ×10^-6 s-1 | 1.542 ± 0.147 ×10^6 M-1 s-1 | 0.049 ± 0.006 | 2.6 ± 0.2 |  |
| CC[C@H](C)[C@H](NC(=O)[C@H](C)NC(=O)[C@H](C)NC(=O)[C@H](Cc1ccccc1)NC(=O)[C@H](CCC(=O)O)NC(=O)[C@H](CC(=O)O)NC(=O)[C@H](CC(=O)O)NC(=O)[C@H](CCSC)NC(=O)[C@H](Cc1c[nH]c2ccccc12)NC(C)=O)C(=O)N[C@@H](CCSC)C(=O)N[C@@H](C)C(=O)N[C@@H](C)C(=O)N[C@@H](Cc1c[nH]cn1)C(=O)NCC(=O)N[C@@H](CC(N)=O)C(=O)N[C@@H](CCC(=O)O)C(=O)N[C@@H](CC(C)C)C(=O)N[C@@H](CCCNC(=N)N)C(=O)N[C@@H](CCC(=O)O)C(=O)N[C@@H](CC(C)C)C(=O)N[C@@H](C)C(=O)N[C@@H](CC(=O)O)C(=O)N[C@@H](CCCCN)C(=O)O [peptide 9] (Ac-WMDDEFAAIMAAHGNELRELADK-OH; C-terminus assumed) | 24.6 ± 1.2 | 67.5 ± 0.7 | 68.3 | 67.4 | 66.9 | 0.183 | 0.239 | 0.132 | 388 ± 57 ×10^-6 s-1 | 2.266 ± 0.942 ×10^6 M-1 s-1 | 0.171 ± 0.076 | 0.50 ± 0.07 |  |
| CC[C@H](C)[C@H](NC(=O)[C@H](C)NC(=O)[C@H](C)NC(=O)[C@H](Cc1ccccc1)NC(=O)[C@H](CCC(=O)O)NC(=O)[C@H](CC(=O)O)NC(=O)[C@H](CC(=O)O)NC(=O)[C@H](CCSC)NC(=O)[C@H](Cc1c[nH]c2ccccc12)NC(C)=O)C(=O)N[C@@H](CCSC)C(=O)N[C@@H](C)C(=O)N[C@H](C(=O)N[C@@H](Cc1c[nH]cn1)C(=O)N[C@@H](C)C(=O)N[C@@H](CC(N)=O)C(=O)N[C@@H](CCC(=O)O)C(=O)N[C@@H](CC(C)C)C(=O)N[C@@H](CCCNC(=N)N)C(=O)N[C@@H](CCC(=O)O)C(=O)N[C@@H](CC(C)C)C(=O)N[C@@H](C)C(=O)N[C@@H](CC(=O)O)C(=O)N[C@@H](CCCCN)C(=O)O)C(C)C [peptide 11] (Ac-WMDDEFAAIMAVHANELRELADK-OH; C-terminus assumed) |  | 69.0 ± 0.2 | 68.8 | 69.2 | 68.9 | 0.13 | 0.0743 | 0.0769 | 197 ± 49 ×10^-6 s-1 | 2.350 ± 1.103 ×10^6 M-1 s-1 | 0.084 ± 0.045 | 1.0 ± 0.2 |  |
| CC[C@H](C)[C@H](NC(=O)[C@H](C)NC(=O)[C@H](C)NC(=O)[C@H](Cc1ccccc1)NC(=O)[C@H](CCC(=O)O)NC(=O)[C@H](CC(=O)O)NC(=O)[C@H](CC(=O)O)NC(=O)[C@H](CCSC)NC(=O)[C@H](Cc1c[nH]c2ccccc12)NC(C)=O)C(=O)N[C@@H](CCSC)C(=O)N[C@@H](C)C(=O)N[C@H](C(=O)N[C@@H](Cc1c[nH]cn1)C(=O)NCC(=O)N[C@@H](C)C(=O)N[C@@H](CCC(=O)O)C(=O)N[C@@H](CC(C)C)C(=O)N[C@@H](CCCNC(=N)N)C(=O)N[C@@H](CCC(=O)O)C(=O)N[C@@H](CC(C)C)C(=O)N[C@@H](C)C(=O)N[C@@H](CC(=O)O)C(=O)N[C@@H](CCCCN)C(=O)O)C(C)C [peptide 12] (Ac-WMDDEFAAIMAVHGAELRELADK-OH; C-terminus assumed) | 28.2 ± 1.2 | 71.1 ± 0.7 | 71.8 | 71.0 | 70.4 | 0.251 | 0.166 | 0.0853 | 203 ± 103 ×10^-6 s-1 | 1.396 ± 0.154 ×10^6 M-1 s-1 | 0.145 ± 0.076 | 1.0 ± 0.5 | 0.0833 |
| CC[C@H](C)[C@H](NC(=O)[C@H](C)NC(=O)[C@H](C)NC(=O)[C@H](Cc1ccccc1)NC(=O)[C@H](CCC(=O)O)NC(=O)[C@H](CC(=O)O)NC(=O)[C@H](CC(=O)O)NC(=O)[C@H](CCSC)NC(=O)[C@H](Cc1c[nH]c2ccccc12)NC(C)=O)C(=O)N[C@@H](CCSC)C(=O)N[C@@H](C)C(=O)N[C@H](C(=O)N[C@@H](Cc1c[nH]cn1)C(=O)NCC(=O)N[C@@H](CC(N)=O)C(=O)N[C@@H](CCC(=O)O)C(=O)N[C@@H](CC(C)C)C(=O)N[C@@H](C)C(=O)N[C@@H](CCC(=O)O)C(=O)N[C@@H](CC(C)C)C(=O)N[C@@H](C)C(=O)N[C@@H](CC(=O)O)C(=O)N[C@@H](CCCCN)C(=O)O)C(C)C [peptide 15] (Ac-WMDDEFAAIMAVHGNELAELADK-OH; C-terminus assumed) | 27.7 ± 0.9 | 70.6 ± 0.1 | 70.6 | 70.7 | 70.4 | 0.124 | 0.106 | 0.112 | 185 ± 52 ×10^-6 s-1 | 1.602 ± 0.332 ×10^6 M-1 s-1 | 0.115 ± 0.04 | 1.0 ± 0.3 |  |
